{
  "source": "patent US6365620B2",
  "about": "“Trifluoromethylpyrrolcarboxamides” (Syngenta Crop Protection, Inc., priority 1998, dated 2002)",
  "data": [
    {"smiles": "Cn1cc(C(=O)Nc2ccccc2-c2ccccc2)c(C(F)(F)F)c1", "note": "[Compound 1.01, N-(2-biphenylyl)-1-methyl-4-trifluoromethylpyrrol-3-carboxamide]", "values": [
      {"measurement": "melting point", "value": "100 to 102", "unit": "°C"}
    ]}
  ]
}
